Assay results reported in the supplement of paper PMC10307832.

Legend:
Test in all cases: relative viability (nuclei count vs DMSO), 5 days (fraction); higher = more cells survive
A-427 = test system: A-427
Procedure, shortened: (§1)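 One day after seeding in 1536-well plates, lung cancer cell lines were dosed by pin tool. Dosing was either single-drug or a fixed anchor-drug dose plus five library-drug doses (not always all listed) in √10 steps. After 5 days, nuclei were stained in one fix-and-stain step and counted on 4× images, and relative viability is the nuclei count of treated wells over that of vehicle wells, given as the median of duplicate plates.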

CAL-12T = test system: CAL-12T
Procedure, shortened: as §1

COR-L 105 = test system: COR-L 105
Procedure, shortened: as §1

EPLC-272H = test system: EPLC-272H
Procedure, shortened: as §1

HCC-15 = test system: HCC-15
Procedure, shortened: as §1

HCC-44 = test system: HCC-44
Procedure, shortened: as §1

LC-2-ad = test system: LC-2-ad
Procedure, shortened: as §1

LCLC-97TM1 = test system: LCLC-97TM1
Procedure, shortened: as §1

NCI-H1395 = test system: NCI-H1395
Procedure, shortened: as §1

NCI-H1563 = test system: NCI-H1563
Procedure, shortened: as §1

NCI-H1734 = test system: NCI-H1734
Procedure, shortened: as §1

NCI-H1792 = test system: NCI-H1792
Procedure, shortened: as §1

NCI-H1915 = test system: NCI-H1915
Procedure, shortened: as §1

NCI-H1975 = test system: NCI-H1975
Procedure, shortened: as §1

NCI-H2023 = test system: NCI-H2023
Procedure, shortened: as §1

NCI-H2342 = test system: NCI-H2342
Procedure, shortened: as §1

NCI-H2347 = test system: NCI-H2347
Procedure, shortened: as §1

NCI-H2405 = test system: NCI-H2405
Procedure, shortened: as §1

NCI-H520 = test system: NCI-H520
Procedure, shortened: as §1

NCI-H838 = test system: NCI-H838
Procedure, shortened: as §1

SW 1573 = test system: SW 1573
Procedure, shortened: as §1

SW 900 = test system: SW 900
Procedure, shortened: as §1

UMC-11 = test system: UMC-11
Procedure, shortened: as §1

SMILES: Cc1cn(-c2cc(NC(=O)c3ccc(C)c(Nc4nccc(-c5cccnc5)n4)c3)cc(C(F)(F)F)c2)cn1 [Nilotinib] + CCNC(=O)c1noc(-c2cc(C(C)C)c(O)cc2O)c1-c1ccc(CN2CCOCC2)cc1 [Luminespib] (partner 0.01 µM)
- relative viability (A-427; first compound 0.001 µM): 0.98
- relative viability (A-427; first compound 0.003162 µM): 0.948
- relative viability (A-427; first compound 0.03162 µM): 0.724
- relative viability (A-427; first compound 0.1 µM): 0.336
- relative viability (CAL-12T; first compound 0.001 µM): 0.66
- relative viability (CAL-12T; first compound 0.003162 µM): 0.335
- relative viability (CAL-12T; first compound 0.01 µM): 0.665
- relative viability (CAL-12T; first compound 0.03162 µM): 0.222
- relative viability (CAL-12T; first compound 0.1 µM): 0.212
- relative viability (COR-L 105; first compound 0.001 µM): 0.764
- relative viability (COR-L 105; first compound 0.003162 µM): 0.711
- relative viability (COR-L 105; first compound 0.01 µM): 0.75
- relative viability (COR-L 105; first compound 0.03162 µM): 0.698
- relative viability (COR-L 105; first compound 0.1 µM): 0.853
- relative viability (EPLC-272H; first compound 0.001 µM): 0.134
- relative viability (EPLC-272H; first compound 0.003162 µM): 0.205
- relative viability (EPLC-272H; first compound 0.01 µM): 0.277
- relative viability (EPLC-272H; first compound 0.03162 µM): 0.265
- relative viability (EPLC-272H; first compound 0.1 µM): 0.175
- relative viability (HCC-15; first compound 0.001 µM): 0.241
- relative viability (HCC-15; first compound 0.003162 µM): 0.431
- relative viability (HCC-15; first compound 0.01 µM): 0.486
- relative viability (HCC-15; first compound 0.03162 µM): 0.219
- relative viability (HCC-15; first compound 0.1 µM): 0.325
- relative viability (HCC-44; first compound 0.001 µM): 0.845
- relative viability (HCC-44; first compound 0.003162 µM): 1.12
- relative viability (HCC-44; first compound 0.01 µM): 1.14
- relative viability (HCC-44; first compound 0.03162 µM): 0.943
- relative viability (HCC-44; first compound 0.1 µM): 0.833
- relative viability (LC-2-ad; first compound 0.001 µM): 0.85
- relative viability (LC-2-ad; first compound 0.003162 µM): 1.15
- relative viability (LC-2-ad; first compound 0.01 µM): 1.21
- relative viability (LC-2-ad; first compound 0.03162 µM): 0.947
- relative viability (LC-2-ad; first compound 0.1 µM): 0.8
- relative viability (LCLC-97TM1; first compound 0.001 µM): 0.795
- relative viability (LCLC-97TM1; first compound 0.003162 µM): 0.868
- relative viability (LCLC-97TM1; first compound 0.01 µM): 0.741
- relative viability (LCLC-97TM1; first compound 0.03162 µM): 0.607
- relative viability (LCLC-97TM1; first compound 0.1 µM): 0.641
- relative viability (NCI-H1395; first compound 0.001 µM): 0.713
- relative viability (NCI-H1395; first compound 0.003162 µM): 0.39
- relative viability (NCI-H1395; first compound 0.01 µM): 0.702
- relative viability (NCI-H1395; first compound 0.03162 µM): 0.713
- relative viability (NCI-H1395; first compound 0.1 µM): 0.814
- relative viability (NCI-H1563; first compound 0.001 µM): 0.546
- relative viability (NCI-H1563; first compound 0.003162 µM): 0.475
- relative viability (NCI-H1563; first compound 0.01 µM): 0.534
- relative viability (NCI-H1563; first compound 0.03162 µM): 0.51
- relative viability (NCI-H1563; first compound 0.1 µM): 0.441
- relative viability (NCI-H1734; first compound 0.001 µM): 0.174
- relative viability (NCI-H1734; first compound 0.003162 µM): 0.168
- relative viability (NCI-H1734; first compound 0.01 µM): 0.208
- relative viability (NCI-H1734; first compound 0.03162 µM): 0.183
- relative viability (NCI-H1734; first compound 0.1 µM): 0.169
- relative viability (NCI-H1792; first compound 0.003162 µM): 0.417
- relative viability (NCI-H1792; first compound 0.01 µM): 0.545
- relative viability (NCI-H1792; first compound 0.1 µM): 0.266
- relative viability (NCI-H1915; first compound 0.001 µM): 0.713
- relative viability (NCI-H1915; first compound 0.003162 µM): 0.896
- relative viability (NCI-H1915; first compound 0.01 µM): 1.41
- relative viability (NCI-H1915; first compound 0.03162 µM): 0.553
- relative viability (NCI-H1915; first compound 0.1 µM): 0.759
- relative viability (NCI-H1975; first compound 0.001 µM): 0.212
- relative viability (NCI-H1975; first compound 0.003162 µM): 0.143
- relative viability (NCI-H1975; first compound 0.01 µM): 0.171
- relative viability (NCI-H1975; first compound 0.03162 µM): 0.205
- relative viability (NCI-H1975; first compound 0.1 µM): 0.138
- relative viability (NCI-H2023; first compound 0.001 µM): 0.854
- relative viability (NCI-H2023; first compound 0.003162 µM): 0.89
- relative viability (NCI-H2023; first compound 0.01 µM): 0.99
- relative viability (NCI-H2023; first compound 0.03162 µM): 1.07
- relative viability (NCI-H2023; first compound 0.1 µM): 0.38
- relative viability (NCI-H2342; first compound 0.001 µM): 0.595
- relative viability (NCI-H2342; first compound 0.003162 µM): 0.675
- relative viability (NCI-H2342; first compound 0.01 µM): 0.698
- relative viability (NCI-H2342; first compound 0.03162 µM): 0.586
- relative viability (NCI-H2342; first compound 0.1 µM): 0.673
- relative viability (NCI-H2347; first compound 0.001 µM): 0.344
- relative viability (NCI-H2347; first compound 0.003162 µM): 0.263
- relative viability (NCI-H2347; first compound 0.01 µM): 0.712
- relative viability (NCI-H2347; first compound 0.03162 µM): 0.589
- relative viability (NCI-H2347; first compound 0.1 µM): 0.598
- relative viability (NCI-H2405; first compound 0.001 µM): 0.76
- relative viability (NCI-H2405; first compound 0.003162 µM): 0.575
- relative viability (NCI-H2405; first compound 0.01 µM): 0.756
- relative viability (NCI-H2405; first compound 0.03162 µM): 0.448
- relative viability (NCI-H2405; first compound 0.1 µM): 0.658
- relative viability (NCI-H520; first compound 0.001 µM): 0.308
- relative viability (NCI-H520; first compound 0.01 µM): 0.244
- relative viability (NCI-H520; first compound 0.03162 µM): 0.223
- relative viability (NCI-H520; first compound 0.1 µM): 0.216
- relative viability (NCI-H838; first compound 0.001 µM): 0.24
- relative viability (NCI-H838; first compound 0.003162 µM): 0.276
- relative viability (NCI-H838; first compound 0.01 µM): 0.308
- relative viability (NCI-H838; first compound 0.03162 µM): 0.273
- relative viability (NCI-H838; first compound 0.1 µM): 0.208
- relative viability (SW 1573; first compound 0.001 µM): 0.397
- relative viability (SW 1573; first compound 0.003162 µM): 0.711
- relative viability (SW 1573; first compound 0.01 µM): 0.277
- relative viability (SW 1573; first compound 0.03162 µM): 0.163
- relative viability (SW 1573; first compound 0.1 µM): 0.144
- relative viability (SW 900; first compound 0.001 µM): 0.177
- relative viability (SW 900; first compound 0.003162 µM): 0.176
- relative viability (SW 900; first compound 0.01 µM): 0.164
- relative viability (SW 900; first compound 0.03162 µM): 0.186
- relative viability (SW 900; first compound 0.1 µM): 0.198
- relative viability (UMC-11; first compound 0.001 µM): 0.978
- relative viability (UMC-11; first compound 0.003162 µM): 1.22
- relative viability (UMC-11; first compound 0.01 µM): 1.26
- relative viability (UMC-11; first compound 0.1 µM): 1.39
